The source of these data is article PMC7126999 (Bioorganic & Medicinal Chemistry, 2015).

Values joined by “and” are separate entries in the source; they are usually repeats but may differ in a detail not shown here. Equal values may be shown once. Read-outs that look alike come from different tables or passages of the source.

The test system of one data set is Coxsackie virus B4. In kind it is cell-based. Particulars: Vero cell cultures; DS-10.000 in μg/ml.
For a further data set, the system named is human lymphocyte CEM. The experiment in a line: Inhibition of proliferation of human T-lymphocyte CEM cells. In kind it is cell-based. Particulars: for cytostatic activity against CEM relative to 5-fluorouracil: fold more active than 5-fluorouracil; for IC50: read-out: IC50 CEM.
In data set [1] the test system is L1210, CEM and HeLa cell lines. The experiment in a line: Cytostatic activity on L1210, CEM and HeLa cell lines. Particulars: fold more cytostatic than cis-9d / cis-9f. In kind it is cell-based, murine; human.
In the next data set the test system is HSV and Vaccinia viruses. The experiment in a line: microbe, parasite or virus in culture. In kind it is cell-based, herpes simplex virus; vaccinia virus. Particulars: Orthopoxvirus vaccinia, read-out: EC50 against HSV and Vaccinia viruses.
Another data set has as its system cytomegalovirus. The experiment in a line: Antiviral activity against cytomegalovirus in HEL cells. In kind it is cell-based, human cytomegalovirus (HCMV). Particulars: read-out: EC50 toward cytomegalovirus, strain not specified.
For the next data set, the system named is HEL cells. The experiment in a line: Cytotoxicity, cell morphology. In kind it is cell-based, human. Particulars: exp. 1 and exp. 2.
The subject of data set [2] is three strains of herpes simplex virus. In kind it is cell-based. Conditions: HEL, read-out: EC50 against three strains of herpes simplex virus.
A short description of data set [3]: Cell viability of CrFK cells, formazan-based MTS assay. Conditions: cat, CrFK cells. Also noted: species or system feline. In general terms: Tetrazolium dyes change colour on reduction, which living cells bring about.
Data set [4] deals with human cervix carcinoma HeLa cells. As to the kind of experiment: Inhibition of proliferation of human cervix carcinoma HeLa cells. Particulars: read-out: IC50 HeLa. Type of data set: cell-based.
Data set [5] can be described thus: Cell viability of MDCK cells, formazan-based MTS assay. Also noted: species or system canine. Conditions: dog, MDCK cells.
For another data set, the system named is Vaccinia virus. As to the kind of experiment: microbe, parasite or virus in culture. Type of data set: cell-based. Conditions: for EC50: Orthopoxvirus vaccinia, HEL, read-out: EC50 Vaccinia virus.
Another data set concerns MDCK cells. The experiment in a line: Cell viability of MDCK cells, formazan-based MTS assay. Also noted: species or system canine. Particulars: read-out: CC50 MDCK; cell viability, colorimetric formazan-based MTS assay.
The next data set has as its system murine leukemia L1210. The experiment in a line: Inhibition of proliferation of murine leukemia L1210 cells. In kind it is cell-based. Particulars: read-out: IC50 L1210; inhibit tumor cell proliferation by 50%.
The subject of another data set is CrFK cells. The experiment in a line: Cell viability of CrFK cells, formazan-based MTS assay. Also noted: species or system feline. Conditions: read-out: CC50 CrFK; cell viability, colorimetric formazan-based MTS assay.
[6] abbreviates: Table 3 (cytomegalovirus assays).
[7] abbreviates: inhibit tumor cell proliferation by 50%.

For orientation: EC50 means the concentration at which the effect is half-maximal. As a reminder, the CC50 is the concentration that lowers cell viability or growth by half. A word on the IC50: it is the point on the concentration scale where inhibition reaches its midpoint.

Consider dextran sulfate [DS-10.000], for which, in the data set with Coxsackie virus B4, the “EC50 Coxsackie virus B4” value was over 100 µg/mL.

For `CCOP(=O)(OCC)[C@@H]1C[C@@H](C(=O)Nc2cc3c4c(cccc4c2)C(=O)N(CCN2CCCC2)C3=O)ON1C` (racemic) [trans-9f, Diethyl trans-5-[N-(2-pirolidyn-1-yl)ethylnaphthalimide-3-ylcarbamoyl]-2-methylisoxazolidin-3-yl-3-phosphonate], the “cytostatic activity against CEM relative to 5-fluorouracil” value with human lymphocyte CEM is recorded as “five-fold”. The “cytostatic activity of trans-isomer relative to corresponding cis-isomer” value in [1] is given as “two-fold”. The concentration giving a half-maximal response (EC50) in the data set with HSV and Vaccinia viruses lay in the range of 45 to 58 µM; in the data set on cytomegalovirus it was 8.9 to 20 µM; in data set [2], 45 to 100 µM. Moreover, the “Cytotoxicity Cell morphology MCC” value in the data set with HEL cells (setting [6]) and in the data set on HEL cells (Table 4 (VZV assays)) was 100 μM in each case.

For the compound `CCOP(=O)(OCC)[C@@H]1C[C@@H](C(=O)Nc2cc3c4c(cccc4c2)C(=O)N(CC(C)C)C3=O)ON1C` [trans-9c, Diethyl trans-5-(N-isobutylnaphthalimide-3-ylcarbamoyl)-2-methylisoxazolidin-3-yl-3-phosphonate], the “Cytotoxicity Cell morphology MCC” value in the data set on HEL cells (setting [6]) and in the data set on HEL cells (Table 4 (VZV assays)) was over 100 μM in each case. The CC50 in [3] was over 100 µM.

For `CCCN1C(=O)c2cccc3cc(NC(=O)[C@@H]4C[C@@H](P(=O)(OCC)OCC)N(C)O4)cc(c23)C1=O` (racemic) [trans-9a, Diethyl trans-5-(N-propylnaphtalimide-3-ylcarbamoyl)-2-methylisoxazolidin-3-yl-3-phosphonate], the “Cytotoxicity Cell morphology MCC” value in the data set on HEL cells (setting [6]) and in the data set with HEL cells (Table 4 (VZV assays)) was over 100 μM in each case. The same compound registered a CC50 in data set [3] of over 100 µM.

Take `CCCCN1C(=O)c2cccc3cc(NC(=O)[C@H]4C[C@@H](P(=O)(OCC)OCC)N(C)O4)cc(c23)C1=O` (racemic) [cis-9b, Diethyl cis-5-(N-butylnaphthalimide-3-ylcarbamoyl)-2-methylisoxazolidin-3-yl-3-phosphonate]: in data set [4] (Homo sapiens, HeLa), the half-inhibitory concentration (IC50) was 25 ± 3 µM. Moreover, the CC50 in data set [5] and in data set [3] was over 100 µM throughout. The “Cytotoxicity Cell morphology MCC” value in the data set with HEL cells (setting [6]) is listed as 100 μM; in the data set with HEL cells (Table 4 (VZV assays)), over 100 μM.

For `CCOP(=O)(OCC)[C@@H]1C[C@H](C(=O)Nc2cc3c4c(cccc4c2)C(=O)N(CCN(C)C)C3=O)ON1C` (racemic) [cis-9d, Diethyl cis-5-[N-(2-dimethylamino)ethylnaphthalimide-3-ylcarbamoyl]-2-methylisoxazolidin-3-yl-3-phosphonate], the concentration for a half-maximal effect (EC50) with HSV and Vaccinia viruses is 45 to 58 µM; in data set [2] it was 45 to 100 µM. Moreover, the “Cytotoxicity Cell morphology MCC” value in the data set on HEL cells (setting [6]) is listed as over 100 μM; in the data set on HEL cells (Table 4 (VZV assays)) it was 100 μM.

As for `Nc1nc2c(ncn2COCCO)c(=O)[nH]1` [Acyclovir, acyclovir], the “activity against vaccinia virus, in words” value with Vaccinia virus was “inactive”.

`CCCN1C(=O)c2cccc3cc(NC(=O)[C@H]4C[C@@H](P(=O)(OCC)OCC)N(C)O4)cc(c23)C1=O` (racemic) [cis-9a, Diethyl cis-5-(N-propylnaphthalimide-3-ylcarbamoyl)-2-methylisoxazolidin-3-yl-3-phosphonate]: the “Cytotoxicity Cell morphology MCC” value with HEL cells (setting [6]) and with HEL cells (Table 4 (VZV assays)) was over 100 μM throughout.

`CCOP(=O)(OCC)[C@@H]1C[C@@H](C(=O)Nc2cc3c4c(cccc4c2)C(=O)N(CCN(CC)CC)C3=O)ON1C` (racemic) [trans-9e, Diethyl trans-5-[N-(2-diethylamino)ethylnaphthalimide-3-ylcarbamoyl]-2-methylisoxazolidin-3-yl-3-phosphonate]: the cytotoxic concentration (CC50) in [3] is over 100 µM.

On to `CCOP(=O)(OCC)[C@@H]1C[C@H](C(=O)Nc2cc3c4c(cccc4c2)C(=O)N(CCN(CC)CC)C3=O)ON1C` (racemic) [cis-9e, Diethyl cis-5-[N-(2-diethylamino)ethylnaphthalimide-3-ylcarbamoyl]-2-methylisoxazolidin-3-yl-3-phosphonate], for which, in data set [5], the 50% cytotoxic concentration (CC50) is over 100 µM.

For the compound `CCOP(=O)(OCC)[C@@H]1C[C@H](C(=O)Nc2cc3c4c(cccc4c2)C(=O)N(CCN2CCCC2)C3=O)ON1C` (racemic) [cis-9f, Diethyl cis-5-[N-(2-pirolidyn-1-yl)ethylnaphthalimide-3-ylcarbamoyl]-2-methylisoxazolidin-3-yl-3-phosphonate], the concentration for a half-maximal effect (EC50) with Vaccinia virus fell in the range of 45 to 100 µM. Also, the “Cytotoxicity Cell morphology MCC” value in the data set on HEL cells (setting [6]) was over 100 μM; with HEL cells (Table 4 (VZV assays)), 100 μM and >100 μM.

For the compound `CCOP(=O)(OCC)[C@H]1C[C@H](CN2C(=O)c3cccc4cc(NC(C)=O)cc(c34)C2=O)ON1C` (relative stereo) [trans-10d/cis-10d (93:7), Diethyl trans-5-(5-acetamido-1,3-dioxo-2,3-dihydro-1H-benzo[de]izochinolin-2-ylmethyl)-2-methylisoxazolidin-3-yl-3-phosphonate], the results for the IC50 (in the data set with human lymphocyte CEM (setting [7]); in data set [4] (setting [7]); in the data set with murine leukemia L1210) were 125 ± 4 µM, 111 ± 3 µM and 136 ± 14 µM, respectively. The cytotoxic concentration (CC50) with MDCK cells and in the data set on CrFK cells was over 100 µM in each case.

For the compound `O=c1[nH]c(=O)n([C@H]2C[C@H](O)[C@@H](CO)O2)cc1/C=C/Br` [Brivudin, brivudin, reference compound], in the data set on Vaccinia virus, the half-maximal effective concentration (EC50) fell in the range of 17 to 22 µM. In addition, in the data set with HEL cells (Table 4 (VZV assays)), the “Cytotoxicity Cell morphology MCC” value was over 300 μM.

As for `CCOP(=O)(OCC)[C@H]1C[C@H](CN2C(=O)c3cccc4cc(N)cc(c34)C2=O)ON1C` (relative stereo) [trans-10c/cis-10c (93:7), Diethyl trans-5-(5-amino-1,3-dioxo-2,3-dihydro-1H-benzo[de]izochinolin-2-ylmethyl)-2-methylisoxazolidin-3-yl-3-phosphonate], the IC50 turned out to be 99 ± 2 µM with human lymphocyte CEM (setting [7]), 101 ± 58 µM in data set [4] (setting [7]) and 95 ± 42 µM in the data set with murine leukemia L1210. Also, the 50% cytotoxic concentration (CC50) in the data set on MDCK cells and in the data set on CrFK cells was over 100 µM each time.

On to `CCOP(=O)(OCC)[C@H]1C[C@H](CN2C(=O)c3cccc4cccc(c34)C2=O)ON1C` (relative stereo) [trans-10a/cis-10a (93:7), Diethyl trans-5-(1,3-dioxo-2,3-dihydro-1H-benzo[de]izochinolin-2-ylmethyl)-2-methylisoxazolidin-3-yl-3-phosphonate], for which the IC50 in the data set with human lymphocyte CEM (setting [7]) worked out at 111 ± 14 µM; in data set [4] (setting [7]), 77 ± 20 µM; with murine leukemia L1210, 180 ± 47 µM. For the same compound, the CC50 with MDCK cells and in the data set on CrFK cells was over 100 µM each time.

Turning to `CCOP(=O)(OCC)[C@H]1C[C@H](CN2C(=O)c3cccc4cc([N+](=O)[O-])cc(c34)C2=O)ON1C` (relative stereo) [trans-10b/cis-10b (94:6), Diethyl trans-5-(5-nitro-1,3-dioxo-2,3-dihydro-1H-benzo[de]izochinolin-2-ylmethyl)-2-methylisoxazolidin-3-yl-3-phosphonate], the 50% inhibitory concentration (IC50) in the data set on human lymphocyte CEM (setting [7]) was determined as 51 ± 6 µM; in data set [4] (setting [7]), 20 ± 3 µM; with murine leukemia L1210, 34 ± 6 µM. The CC50 in the data set on MDCK cells and in the data set on CrFK cells was over 100 µM throughout.

For `CCOP(=O)(OCC)[C@@H]1C[C@H](C(=O)Nc2cc3c4c(cccc4c2)C(=O)N(CC(C)C)C3=O)ON1C` (racemic) [cis-9c, Diethyl cis-5-(N-isobutylnaphthalimide-3-ylcarbamoyl)-2-methylisoxazolidin-3-yl-3-phosphonate], the “Cytotoxicity Cell morphology MCC” value with HEL cells (setting [6]) and in the data set with HEL cells (Table 4 (VZV assays)) was over 100 μM in each case.

As for `CCCCN1C(=O)c2cccc3cc(NC(=O)[C@@H]4C[C@@H](P(=O)(OCC)OCC)N(C)O4)cc(c23)C1=O` (racemic) [trans-9b, Diethyl trans-5-(N-butylnaphthalimide-3-ylcarbamoyl)-2-methylisoxazolidin-3-yl-3-phosphonate], the “Cytotoxicity Cell morphology MCC” value in the data set with HEL cells (setting [6]) is listed as 100 μM; with HEL cells (Table 4 (VZV assays)), over 100 μM.

Turning to `CCOP(=O)(OCC)[C@@H]1C[C@@H](C(=O)Nc2cc3c4c(cccc4c2)C(=O)N(CCN(C)C)C3=O)ON1C` (racemic) [trans-9d, Diethyl trans-5-[N-(2-dimethylamino)ethylnaphthalimide-3-ylcarbamoyl]-2-methylisoxazolidin-3-yl-3-phosphonate], the “cytostatic activity against CEM relative to 5-fluorouracil” value in the data set with human lymphocyte CEM is recorded as “five-fold”. The “cytostatic activity of trans-isomer relative to corresponding cis-isomer” value in data set [1] was “two-fold”. Further, the EC50 is 45 to 58 µM in the data set on HSV and Vaccinia viruses; 45 to 100 µM in [2]. For the same compound, the figures for the “Cytotoxicity Cell morphology MCC” value with HEL cells (setting [6]) and in the data set on HEL cells (Table 4 (VZV assays)) were 100 μM and over 100 μM, respectively.

`Nc1nc2c(ncn2COC(CO)CO)c(=O)[nH]1` [Ganciclovir, ganciclovir, reference compound]: the “activity against vaccinia virus, in words” value in the data set with Vaccinia virus is “inactive”. Moreover, the “Cytotoxicity Cell morphology MCC” value with HEL cells (setting [6]) was over 350 μM.

With `Nc1ccn(C[C@@H](CO)OCP(=O)(O)O)c(=O)n1.O.O` [Cidofovir, cidofovir, reference compound], the “Cytotoxicity Cell morphology MCC” value in the data set with HEL cells (setting [6]) is over 350 μM.

Consider `O=c1[nH]cc(F)c(=O)[nH]1` [5-Fluorouracil, reference compound], for which the IC50 with human lymphocyte CEM (Homo sapiens, Lymphocyte) was 18 ± 5 µM; in data set [4] (Homo sapiens, HeLa) it was 0.54 ± 0.12 µM.
